The source of these data is PMC5147771, “High-Resolution Genetics Identifies the Lipid Transfer Protein Sec14p as Target for Antifungal Ergolines” (PLoS Genetics, 2016).

“Also recorded” adds a separate entry of the source. Read-outs that look alike come from different tables or passages of the source.

Assay [1] relates to C. neoformans ATCC 90113. The experiment in a line: C. neoformans growth inhibition (CLSI M27-A3 broth microdilution). Conditions: for MIC: Cryptococcus neoformans, ATCC90113, 72 h. It counts as cell-based. An excerpt:
(§1) Sec14p is reported to be essential for virulence as well as for growth in C. neoformans. The S. cerevisiae and C. neoformans proteins show 53% similarity by pair-wise alignment with higher conservation of the residues in the lipid-binding pocket (S2 Fig). Furthermore, three of the four sites identified to be critical for NGx04 sensitivity, are conserved (S2 Fig). In combination with the current high unmet medical need related to Cryptococcus infections we prioritized testing of NGx04 and 18 related ergoline scaffold analogs against this pathogen. Two clinical isolates of C. neoformans (ATCC 36556 and ATCC 90113) were plated in triplicates on increasing drug concentrations and MIC-2 (50% inhibition) and MIC-0 (no visible fungal growth) concentrations were scored after 72 hrs. (Fig 5).
(§2) C. neoformans strains ATCC 36556, a lung isolate, and ATCC 90113, a cerebrospinal fluid isolate, were purchased from ATCC, Manassas, VA (USA). BPY22 was obtained from.
(§3) Antifungal susceptibility testing was conducted according to the Clinical and Laboratory Standards Institute (CLSI) guidelines for broth microdilution assay M27-A3. Testing was performed in RPMI-1640 (HyClone) with 2.05 mM glutamine, phenol red, without bicarbonate and buffered with 0.165 mol/l 3-(N-morpholino) propanesulfonic acid (MOPS). The medium was adjusted to pH 7.0 and sterilized with a 0.2 μm filter. Two endpoints were recorded: MIC-0 (complete inhibition with no visible fungal growth) and MIC-2 (prominent inhibition corresponding to >50% growth reduction).
A general note: Dilution methods test growth across graded concentrations, often in twofold steps.

The subject of assay [2] is C. neoformans ATCC 36556. Described as above. It counts as cell-based. Conditions: for MIC: Cryptococcus neoformans, ATCC36556, 72 h; for C. neoformans growth inhibition (in words): clinical isolates ATCC 36556 and ATCC 90113, tested dose range.
Excerpt: as §1, §2, §3

The mark [3] stands for this setting: 50% inhibition, 72 h, triplicate values printed singly, read-out: ATCC90113 MIC-2.
Where [4] appears, read: no visible fungal growth, 72 h, triplicate values printed singly, read-out: ATCC90113 MIC-0.
Where [5] appears, read: no visible fungal growth, 72 h, triplicate values printed singly.
Where [6] appears, read: 50% inhibition, 72 h, triplicate values printed singly, read-out: ATCC36556 MIC-2.
The mark [7] stands for this setting: no visible fungal growth, 72 h, triplicate values printed singly, read-out: ATCC36556 MIC-0.
[8] abbreviates: 50% inhibition, 72 h, triplicate values printed singly.

As for `COC(=O)[C@@H]1C[C@@H]2c3cccc4c3[C@H](C[C@H]2N(C)C1)CN4C(=O)OCC(Cl)(Cl)Cl` [NGx16], the MIC in assay [1] (setting [3]) stood at 13 µg/mL; in assay [1] (setting [4]), 50 µg/mL; in assay [2] (setting [6]) it was 13 µg/mL; in assay [2] (setting [7]) it was 50 µg/mL. The “ATCC90113 MIC-0” value in assay [1] (setting [5]) was greater than 50 µg/mL. The “C. neoformans growth inhibition (in words)” value in assay [2] was “inhibit C. neoformans growth”. Also, the “ATCC36556 MIC-0” value in assay [2] (setting [5]) is greater than 50 µg/mL.
Regarding `CN1C[C@H](C(=O)Nc2cccc(C(F)(F)F)c2)C[C@@H]2c3cccc4c3[C@H](C[C@H]21)CN4C(=O)OC(C)(C)C` [NGx03], the MIC in assay [1] (setting [3]) was greater than 50 µg/mL; in assay [1] (setting [4]), greater than 50 µg/mL; in assay [2] (setting [6]), 3.13 µg/mL; in assay [2] (setting [7]), 6.25 µg/mL. Also, in assay [2] (setting [8]), the “ATCC36556 MIC-2” value came out at 3.1 µg/mL. The “C. neoformans growth inhibition (in words)” value in assay [2] is on record as “inhibit C. neoformans growth; also recorded: scored anti-fungal activity”. For the same compound, in assay [2] (setting [5]), the “ATCC36556 MIC-0” value was found to be 6.3 µg/mL.
Take `COC(=O)[C@@H]1C[C@@H]2c3cc(F)cc4c3[C@H](C[C@H]2N(C)C1)CN4C(C)=O` [NGx06]: the MIC in assay [1] (setting [3]) is greater than 50 µg/mL; in assay [1] (setting [4]), greater than 50 µg/mL; in assay [2] (setting [6]), 50 µg/mL; in assay [2] (setting [7]) it was greater than 50 µg/mL.
Take `C[C@@H]1[C@H](O)[C@@H](C)/C=C/C=C/C=C/C=C/C=C/C=C/C=C/[C@H](O[C@@H]2O[C@H](C)[C@@H](O)[C@H](N)[C@@H]2O)C[C@@H]2O[C@](O)(C[C@@H](O)C[C@@H](O)[C@H](O)CC[C@@H](O)C[C@@H](O)CC(=O)O[C@H]1C)C[C@H](O)[C@H]2C(=O)O` [Amphotericin B, reference compound]: the MIC in assay [1] (setting [3]) amounted to 0.8 µg/mL; in assay [1] (setting [4]), 1.6 µg/mL; in assay [2] (setting [6]), 0.2 µg/mL; in assay [2] (setting [7]), 0.2 µg/mL. For the same compound, in assay [2] (setting [8]), the “ATCC36556 MIC-2” value worked out at 0.1 µg/mL. Further, the “ATCC36556 MIC-0” value in assay [2] (setting [5]) was 0.4 µg/mL.
As for `CN1C[C@H](C(=O)O)C[C@@H]2c3cccc4c3[C@H](C[C@H]21)CN4C(=O)OC(C)(C)C` [NGx01], the minimal inhibitory concentration (MIC) in assay [1] (read-out: ATCC90113 MIC-0), in assay [1] (read-out: ATCC90113 MIC-2), in assay [2] (read-out: ATCC36556 MIC-0) and in assay [2] (read-out: ATCC36556 MIC-2) was greater than 50 µg/mL in each case.
In the case of `COC(=O)[C@@H]1C[C@@H]2c3cc([N+](=O)[O-])cc4c3[C@H](C[C@H]2N(C)C1)CN4C(C)=O` [NGx11], the minimal inhibitory concentration (MIC) in assay [1] (setting [3]) was greater than 50 µg/mL; in assay [1] (setting [4]), greater than 50 µg/mL; in assay [2] (setting [6]), 25 µg/mL; in assay [2] (setting [7]), greater than 50 µg/mL.
With `COC(=O)[C@@H]1C[C@@H]2c3cc(N)cc4c3[C@H](C[C@H]2N(C)C1)CN4C(C)=O` [NGx10], the MIC in assay [1] (setting [3]) was greater than 50 µg/mL; in assay [1] (setting [4]), greater than 50 µg/mL; in assay [2] (setting [6]) it was 25 µg/mL; in assay [2] (setting [7]) it was greater than 50 µg/mL.
Take `COC(=O)C1CC2c3cc(O)cc4c3C(CC2N(C)C1)CN4C(C)=O` (centres unmarked) [NGx12]: the MIC in assay [1] (setting [3]) is greater than 50 µg/mL; in assay [1] (setting [4]), greater than 50 µg/mL; in assay [2] (setting [6]), 25 µg/mL; in assay [2] (setting [7]), greater than 50 µg/mL. Also, in assay [2] (setting [8]), the “ATCC36556 MIC-2” value was 50 µg/mL.
For the compound `COC(=O)[C@@H]1C[C@@H]2c3cc(OCc4ccccc4)cc4c3[C@H](C[C@H]2N(C)C1)CN4C(C)=O` [NGx08], the MIC in assay [1] (setting [3]) is greater than 50 µg/mL; in assay [1] (setting [4]), greater than 50 µg/mL; in assay [2] (setting [6]), 50 µg/mL; in assay [2] (setting [7]), greater than 50 µg/mL. In assay [2] (setting [8]), the “ATCC36556 MIC-2” value is 25 µg/mL.
Turning to `COC(=O)[C@@H]1C[C@@H]2c3cc([N+](=O)[O-])cc4c3[C@H](C[C@H]2N(C)C1)CN4C(=O)OCC(Cl)(Cl)Cl` [NGx09], the minimum inhibitory concentration (MIC) in assay [1] (setting [4]) and in assay [2] (setting [7]) was greater than 50 µg/mL throughout. Moreover, in assay [2], the “C. neoformans growth inhibition (in words)” value is listed as “inhibit C. neoformans growth”.
For `CN1CC(C(=O)O)CC2c3cccc4c3C(CC21)CN4C(=O)OCc1ccccc1` (centres unmarked) [NGx18], the MIC in assay [1] (setting [3]), in assay [1] (setting [4]), in assay [2] (setting [6]) and in assay [2] (setting [7]) was greater than 50 µg/mL in each case.
As for `COC(=O)[C@@H]1C[C@@H]2c3cc(O)cc4c3[C@H](C[C@H]2N(C)C1)CN4C(C)=O` [NGx02], the minimum inhibitory concentration (MIC) in assay [1] (setting [3]), in assay [1] (setting [4]), in assay [2] (setting [6]) and in assay [2] (setting [7]) was greater than 50 µg/mL in each case.
With `CN1C[C@H](C(=O)Nc2ccccc2)C[C@@H]2c3c(O)ccc4c3[C@H](C[C@H]21)CN4C(=O)OC(C)(C)C` [NGx07], the minimal inhibitory concentration (MIC) in assay [1] (setting [3]) is 13 µg/mL; in assay [1] (setting [4]), greater than 50 µg/mL; in assay [2] (setting [6]), 6.3 µg/mL; in assay [2] (setting [7]), greater than 50 µg/mL. For the same compound, the “C. neoformans growth inhibition (in words)” value in assay [2] is listed as “inhibit C. neoformans growth; also recorded: scored anti-fungal activity”.
Regarding `COC(=O)[C@@H]1C[C@@H]2c3c([N+](=O)[O-])ccc4c3[C@H](C[C@H]2N(C)C1)CN4C(=O)OCC(Cl)(Cl)Cl` [NGx19], the “ATCC90113 MIC-2” value in assay [1] (setting [8]) turned out to be 6.3 µg/mL. Further, the minimum inhibitory concentration (MIC) in assay [1] (setting [3]) was 6.25 µg/mL; in assay [1] (setting [4]), greater than 50 µg/mL; in assay [2] (setting [6]), 12.5 µg/mL; in assay [2] (setting [7]) it was 50 µg/mL. Further, in assay [2] (setting [8]), the “ATCC36556 MIC-2” value was determined as 13 µg/mL. For the same compound, the “C. neoformans growth inhibition (in words)” value in assay [2] is on record as “inhibit C. neoformans growth”. In addition, the “ATCC36556 MIC-0” value in assay [2] (setting [5]) came to 25 µg/mL.
With `COC(=O)[C@@H]1C[C@@H]2c3cc([N+](=O)[O-])cc4c3[C@@H](CN4)C[C@H]2N(C)C1` [NGx14], the minimal inhibitory concentration (MIC) in assay [1] (setting [3]) is greater than 50 µg/mL; in assay [1] (setting [4]) it was greater than 50 µg/mL; in assay [2] (setting [6]) it was 50 µg/mL; in assay [2] (setting [7]), greater than 50 µg/mL.
As for `COC(=O)C1CC2c3cccc4c3C(CC2N(C)C1)CN4C=O` (centres unmarked) [NGx17], the minimal inhibitory concentration (MIC) in assay [1] (setting [3]) is greater than 50 µg/mL; in assay [1] (setting [4]), greater than 50 µg/mL; in assay [2] (setting [6]), 50 µg/mL; in assay [2] (setting [7]) it was greater than 50 µg/mL. Moreover, in assay [2] (setting [8]), the “ATCC36556 MIC-2” value is greater than 50 µg/mL.
Consider `COC(=O)C1CC2c3cccc4c3C(CC2N(C(C)C)C1)CN4C(=O)OC(C)(C)C` (centres unmarked) [NGx15], for which the MIC in assay [1] (setting [3]), in assay [1] (setting [4]), in assay [2] (setting [6]) and in assay [2] (setting [7]) was greater than 50 µg/mL each time.

One may read the MIC as the smallest concentration in the dilution series that meets the test's criterion for growth inhibition.
